{
  "source": "paper PMC6481345",
  "about": "“A novel anti-melanoma SRC-family kinase inhibitor” (Oncotarget, 2019)",
  "key": {"[1]": {"test_system": "tyrosinase", "experiment": "Western blot, tyrosinase levels", "format": "cell-based, human", "settings": "YUSIK, YUKIM and YUPEET; 0.5 µM for 20 hrs", "procedure": "We used standard techniques to identify changes in intracellular signaling in response to various treatments. Briefly, melanoma cells were incubated with test compounds, using DMSO as a control, collected by scraping on ice, and lysed in RIPA buffer supplemented with protease and phosphatase inhibitors (MA #78428, and #78425, respectively, Thermo Fisher Scientific, Waltham, MA). Protein concentrations were measured with the BioRad kit (Bio-Rad Laboratories, Hercules, CA), SDS sample buffer was added, extracts were heated at 95°C, sonicated and centrifuged. Cell extracts (20 µg/lane) were fractionated in 3%–8% or 4–12 % tris-acetate gel (NP0006, NuPAGE Life Technologies). […]"}, "[2]": {"biological_target": "ABL2 (Homo sapiens, UniProt P42684)", "sequence (P42684 whole entry)": "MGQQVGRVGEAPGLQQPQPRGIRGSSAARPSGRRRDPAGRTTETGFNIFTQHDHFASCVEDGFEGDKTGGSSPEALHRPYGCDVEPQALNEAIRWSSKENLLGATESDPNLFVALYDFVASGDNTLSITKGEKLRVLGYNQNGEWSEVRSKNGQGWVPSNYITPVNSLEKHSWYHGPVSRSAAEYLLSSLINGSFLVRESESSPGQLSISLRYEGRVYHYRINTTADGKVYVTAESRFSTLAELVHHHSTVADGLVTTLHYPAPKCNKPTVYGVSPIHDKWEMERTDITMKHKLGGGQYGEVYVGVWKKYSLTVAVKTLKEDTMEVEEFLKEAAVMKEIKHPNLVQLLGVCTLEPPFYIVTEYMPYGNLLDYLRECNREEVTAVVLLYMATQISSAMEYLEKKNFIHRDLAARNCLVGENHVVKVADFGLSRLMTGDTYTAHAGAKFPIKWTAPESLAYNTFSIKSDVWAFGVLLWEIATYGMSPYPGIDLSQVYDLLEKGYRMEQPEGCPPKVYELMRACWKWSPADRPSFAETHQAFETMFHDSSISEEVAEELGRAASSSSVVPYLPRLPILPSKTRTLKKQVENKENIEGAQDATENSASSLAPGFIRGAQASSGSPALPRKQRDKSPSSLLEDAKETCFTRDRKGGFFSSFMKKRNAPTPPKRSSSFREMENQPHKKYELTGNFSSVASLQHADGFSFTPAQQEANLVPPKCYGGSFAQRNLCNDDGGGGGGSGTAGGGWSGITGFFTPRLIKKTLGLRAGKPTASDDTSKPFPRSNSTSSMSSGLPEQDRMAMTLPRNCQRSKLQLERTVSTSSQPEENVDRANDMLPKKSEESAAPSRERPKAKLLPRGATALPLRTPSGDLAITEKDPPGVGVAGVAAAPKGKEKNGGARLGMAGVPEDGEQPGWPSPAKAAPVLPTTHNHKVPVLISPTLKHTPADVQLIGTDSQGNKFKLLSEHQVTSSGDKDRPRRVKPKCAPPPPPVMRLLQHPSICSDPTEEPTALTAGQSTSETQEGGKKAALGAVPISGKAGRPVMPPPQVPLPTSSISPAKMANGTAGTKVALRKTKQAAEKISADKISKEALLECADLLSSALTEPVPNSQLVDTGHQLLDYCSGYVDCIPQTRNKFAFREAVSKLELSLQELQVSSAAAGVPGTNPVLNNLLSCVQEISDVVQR", "experiment": "Radioisotope filter activity assay, recombinant kinase", "format": "biochemical", "parameters": "purchased Reaction Biology Corporation", "settings": "10 point dose response, 10 µM ATP", "procedure": "(§1) The effect of SAB298 on a panel of 36 recombinant kinases, was screed with the radioisotope filter binding assay employing 10 concentrations of the compound with 10 µM ATP (Reaction Biology Corporation, Malvern, PA). In addition, we tested the endogenous kinome response to SAB298 (0.05 µM, 0.5 µM and 5 µM) in lysates from two melanoma cell lines (YUSIV and YUSIK) employing the KiNativ® platform (ActivX Biosciences Inc., La Jolla, CA). KiNativ® is a robust, high performance mass spectrometry (LC-MS^2) assay that uses biotinylated probes to measure relevant changes in the affinity to the ATP-binding sites of 205 native kinases as a function of cellular context. We also validated SAB298 effect on the activity of SRC-family kinases by probing for phosphorylated Y416, the marker of activated SFKs, with anti-IEDNEpYTAR antibodies (also known as Y419, #2101, Cell Signaling Technology, Beverly, MA). In some cases the cells were incubated overnight with 20 µM proteasome inhibitor MG-132 (CAS 133407-82-6, Millipore Sigma, Burlington, MA) to rescue degradation.\n(§2) Supplemntary Table 3: Radioisotope filter activity assay Tests for SAB298 target protein\n(§3) *These are results from 10 point dose response test employed with 10 µM ATP. […]\n(§4) SRC TRCN0000195339 3ʹUTR […]\n(§5) YES TRCN0000001611 CDS […]\n(§6) FYN TRCN0000003099 CDS […]\n(§7) LY N TRCN0000230901 CDS […]"}, "[3]": {"biological_target": "CSK (Homo sapiens, UniProt P41240)", "sequence (P41240 whole entry)": "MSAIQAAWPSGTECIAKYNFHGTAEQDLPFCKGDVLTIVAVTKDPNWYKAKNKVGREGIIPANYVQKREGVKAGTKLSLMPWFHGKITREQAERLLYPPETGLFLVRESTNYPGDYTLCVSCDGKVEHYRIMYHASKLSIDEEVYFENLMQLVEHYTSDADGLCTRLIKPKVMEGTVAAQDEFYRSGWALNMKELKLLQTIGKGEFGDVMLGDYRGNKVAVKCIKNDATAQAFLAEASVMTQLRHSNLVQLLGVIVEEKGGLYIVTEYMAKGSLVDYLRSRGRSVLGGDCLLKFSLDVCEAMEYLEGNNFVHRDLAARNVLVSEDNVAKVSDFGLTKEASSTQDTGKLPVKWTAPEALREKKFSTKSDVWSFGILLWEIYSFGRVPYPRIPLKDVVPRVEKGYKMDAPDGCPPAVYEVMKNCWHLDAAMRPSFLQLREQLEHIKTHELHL", "experiment": "Radioisotope filter activity assay, recombinant kinase", "format": "biochemical", "parameters": "purchased Reaction Biology Corporation", "settings": "10 point dose response, 10 µM ATP", "procedure": "as §1, §2, §3, §4, §5, §6, §7"}, "[4]": {"biological_target": "ERBB2 (Homo sapiens, UniProt P04626)", "sequence (P04626 23-1255)": "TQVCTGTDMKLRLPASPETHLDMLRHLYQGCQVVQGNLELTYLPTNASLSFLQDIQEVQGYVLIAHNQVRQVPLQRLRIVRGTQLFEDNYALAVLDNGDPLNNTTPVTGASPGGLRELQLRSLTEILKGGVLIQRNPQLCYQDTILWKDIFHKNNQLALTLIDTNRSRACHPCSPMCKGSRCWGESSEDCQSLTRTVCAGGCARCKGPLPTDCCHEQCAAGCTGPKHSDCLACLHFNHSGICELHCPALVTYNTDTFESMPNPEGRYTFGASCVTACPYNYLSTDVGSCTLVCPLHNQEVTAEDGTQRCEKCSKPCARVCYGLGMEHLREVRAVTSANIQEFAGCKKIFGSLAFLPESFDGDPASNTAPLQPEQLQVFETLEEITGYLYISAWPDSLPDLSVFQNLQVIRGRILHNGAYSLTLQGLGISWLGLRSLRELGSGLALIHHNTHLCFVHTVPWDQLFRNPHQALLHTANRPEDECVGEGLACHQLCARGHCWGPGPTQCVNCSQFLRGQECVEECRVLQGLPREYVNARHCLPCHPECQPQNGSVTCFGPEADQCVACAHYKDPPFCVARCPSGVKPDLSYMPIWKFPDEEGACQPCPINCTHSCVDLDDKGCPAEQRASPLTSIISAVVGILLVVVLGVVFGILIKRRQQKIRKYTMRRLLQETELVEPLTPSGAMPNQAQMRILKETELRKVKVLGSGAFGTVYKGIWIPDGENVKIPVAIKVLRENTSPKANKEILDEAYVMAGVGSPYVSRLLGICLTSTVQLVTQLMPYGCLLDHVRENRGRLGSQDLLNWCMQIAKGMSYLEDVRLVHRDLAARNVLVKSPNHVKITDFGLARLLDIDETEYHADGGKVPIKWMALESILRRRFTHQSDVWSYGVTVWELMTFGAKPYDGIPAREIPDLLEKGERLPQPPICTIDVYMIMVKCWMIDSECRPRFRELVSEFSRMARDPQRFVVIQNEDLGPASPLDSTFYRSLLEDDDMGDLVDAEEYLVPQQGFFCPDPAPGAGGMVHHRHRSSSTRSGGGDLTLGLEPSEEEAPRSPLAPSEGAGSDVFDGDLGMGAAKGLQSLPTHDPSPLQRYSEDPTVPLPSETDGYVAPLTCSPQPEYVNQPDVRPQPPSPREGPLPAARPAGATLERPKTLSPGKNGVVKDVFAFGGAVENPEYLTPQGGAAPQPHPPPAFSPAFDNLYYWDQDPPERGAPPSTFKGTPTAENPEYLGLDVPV", "experiment": "Radioisotope filter activity assay, recombinant kinase", "format": "biochemical", "parameters": "purchased Reaction Biology Corporation", "settings": "10 point dose response, 10 µM ATP", "procedure": "as §1, §2, §3, §4, §5, §6, §7"}, "[5]": {"biological_target": "LCK (Homo sapiens, UniProt P06239)", "sequence (P06239 whole entry)": "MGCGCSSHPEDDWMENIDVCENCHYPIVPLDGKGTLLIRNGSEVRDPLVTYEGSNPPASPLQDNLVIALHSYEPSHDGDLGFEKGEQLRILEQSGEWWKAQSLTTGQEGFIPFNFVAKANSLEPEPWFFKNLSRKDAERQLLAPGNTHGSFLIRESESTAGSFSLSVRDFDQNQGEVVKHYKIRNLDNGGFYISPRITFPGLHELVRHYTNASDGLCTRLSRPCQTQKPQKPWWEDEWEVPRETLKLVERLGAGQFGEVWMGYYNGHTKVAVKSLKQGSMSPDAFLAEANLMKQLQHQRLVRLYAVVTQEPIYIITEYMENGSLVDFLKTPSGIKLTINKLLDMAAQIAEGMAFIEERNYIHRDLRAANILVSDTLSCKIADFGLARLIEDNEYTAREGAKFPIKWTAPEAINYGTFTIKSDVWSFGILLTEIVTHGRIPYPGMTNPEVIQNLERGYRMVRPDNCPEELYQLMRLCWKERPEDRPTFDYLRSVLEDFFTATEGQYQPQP", "experiment": "Radioisotope filter activity assay, recombinant kinase", "format": "biochemical", "parameters": "purchased Reaction Biology Corporation", "settings": "10 point dose response, 10 µM ATP", "procedure": "as §1, §2, §3, §4, §5, §6, §7"}, "[6]": {"biological_target": "T1, LYN (Homo sapiens, UniProt P07948)", "T1 sequence (P07948 whole entry)": "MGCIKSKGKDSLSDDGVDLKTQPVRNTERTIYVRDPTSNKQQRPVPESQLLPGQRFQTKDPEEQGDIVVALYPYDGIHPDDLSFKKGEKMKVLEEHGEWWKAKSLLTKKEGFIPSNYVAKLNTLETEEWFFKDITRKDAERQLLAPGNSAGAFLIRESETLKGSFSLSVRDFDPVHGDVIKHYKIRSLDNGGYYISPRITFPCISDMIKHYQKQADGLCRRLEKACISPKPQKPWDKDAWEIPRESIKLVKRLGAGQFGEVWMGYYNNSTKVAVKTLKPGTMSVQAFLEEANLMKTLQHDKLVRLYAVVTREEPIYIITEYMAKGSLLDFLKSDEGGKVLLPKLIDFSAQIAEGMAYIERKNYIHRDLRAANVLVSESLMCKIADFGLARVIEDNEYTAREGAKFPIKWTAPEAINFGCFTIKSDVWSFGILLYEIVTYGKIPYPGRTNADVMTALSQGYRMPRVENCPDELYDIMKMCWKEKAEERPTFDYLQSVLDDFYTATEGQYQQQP", "experiment": "Radioisotope filter activity assay, recombinant kinase", "format": "biochemical", "parameters": "purchased Reaction Biology Corporation", "settings": "10 point dose response, 10 µM ATP", "procedure": "as §1, §2, §3, §4, §5, §6, §7"}, "[7]": {"biological_target": "T2, SRC (Homo sapiens, UniProt P12931)", "T2 sequence (P12931 whole entry)": "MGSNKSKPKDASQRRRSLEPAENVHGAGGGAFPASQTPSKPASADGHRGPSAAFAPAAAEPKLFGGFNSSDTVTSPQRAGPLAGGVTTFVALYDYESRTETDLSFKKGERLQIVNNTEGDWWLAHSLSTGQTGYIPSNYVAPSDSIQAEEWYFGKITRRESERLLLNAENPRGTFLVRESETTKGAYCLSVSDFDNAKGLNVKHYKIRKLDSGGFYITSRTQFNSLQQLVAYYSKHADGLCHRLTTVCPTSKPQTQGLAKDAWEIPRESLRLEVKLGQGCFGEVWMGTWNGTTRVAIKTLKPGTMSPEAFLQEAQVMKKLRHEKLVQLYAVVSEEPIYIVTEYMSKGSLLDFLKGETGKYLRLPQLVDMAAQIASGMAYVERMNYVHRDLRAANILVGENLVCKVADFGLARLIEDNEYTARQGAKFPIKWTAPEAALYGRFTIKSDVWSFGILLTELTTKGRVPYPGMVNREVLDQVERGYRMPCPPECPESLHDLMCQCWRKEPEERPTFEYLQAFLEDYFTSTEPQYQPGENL", "experiment": "Radioisotope filter activity assay, recombinant kinase", "format": "biochemical", "parameters": "purchased Reaction Biology Corporation", "settings": "10 point dose response, 10 µM ATP", "procedure": "as §1, §2, §3, §4, §5, §6, §7"}, "[8]": {"biological_target": "YES1 (Homo sapiens, UniProt P07947)", "sequence (P07947 whole entry)": "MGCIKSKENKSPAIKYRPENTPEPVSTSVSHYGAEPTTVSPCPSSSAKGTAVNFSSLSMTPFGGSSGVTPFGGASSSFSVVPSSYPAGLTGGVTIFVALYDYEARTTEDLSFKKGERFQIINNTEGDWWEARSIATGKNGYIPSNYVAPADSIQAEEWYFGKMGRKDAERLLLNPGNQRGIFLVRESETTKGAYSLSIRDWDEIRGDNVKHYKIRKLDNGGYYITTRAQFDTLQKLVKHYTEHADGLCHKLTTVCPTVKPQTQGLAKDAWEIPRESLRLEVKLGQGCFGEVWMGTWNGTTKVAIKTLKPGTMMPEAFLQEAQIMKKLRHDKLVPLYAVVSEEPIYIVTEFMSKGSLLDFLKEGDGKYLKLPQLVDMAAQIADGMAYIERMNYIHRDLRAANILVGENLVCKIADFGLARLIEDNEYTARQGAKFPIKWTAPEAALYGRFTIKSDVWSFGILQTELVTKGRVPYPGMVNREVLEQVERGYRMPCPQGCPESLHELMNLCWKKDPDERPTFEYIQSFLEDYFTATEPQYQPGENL", "experiment": "Radioisotope filter activity assay, recombinant kinase", "format": "biochemical", "parameters": "purchased Reaction Biology Corporation", "settings": "10 point dose response, 10 µM ATP", "procedure": "as §1, §2, §3, §4, §5, §6, §7"}, "[9]": {"biological_target": "T1, LYN", "experiment": "KiNativ in situ kinase profiling in melanoma cell lysates", "format": "binding", "parameters": "the endogenous kinome response to SAB298 (0.05 µM, 0.5 µM and 5 µM) in lysates from two melanoma cell lines; host or cells: YUSIV and YUSIK melanoma cell lysates", "settings": "3-point dose response", "procedure": "as §1"}, "[10]": {"biological_target": "T2, SRC", "experiment": "KiNativ in situ kinase profiling in melanoma cell lysates", "format": "binding", "parameters": "the endogenous kinome response to SAB298 (0.05 µM, 0.5 µM and 5 µM) in lysates from two melanoma cell lines; host or cells: YUSIV and YUSIK melanoma cell lysates", "procedure": "as §1"}},
  "data": [
    {"smiles": "Nc1ncnc2c1c(-c1ccc(Oc3ccccc3)cc1)nn2C[C@@H]1SSC[C@@H]1O", "note": "[SAB298, (3S, 4S)-3-((4-amino-3-(4-phenoxyphenyl)-1H-pyrazolo[3,4-d]pyrimidin-1-yl)methyl)-1,2-dithiolan-4-ol]", "values": [
      {"measurement": "tyrosinase levels", "setting": "[1]", "result": "suppressed the levels of tyrosinase"},
      {"measurement": "IC50", "setting": "[2]", "result": 2560, "unit": "nM"},
      {"measurement": "IC50", "setting": "[3]", "result": 139, "unit": "nM"},
      {"measurement": "IC50", "setting": "[4]", "result": 8860, "unit": "nM"},
      {"measurement": "IC50", "setting": "[5]", "result": 7.8, "unit": "nM"},
      {"measurement": "IC50", "setting": "[6]", "result": 137, "unit": "nM"},
      {"measurement": "IC50", "setting": "[7]", "result": 269, "unit": "nM"},
      {"measurement": "IC50", "setting": "[8]", "result": 0.7, "unit": "nM"},
      {"measurement": "IC50", "setting": "[9]; LYN in YUSIK lysate", "result": 190, "unit": "nM"},
      {"measurement": "IC50", "setting": "[9]; LYN in YUSIV lysate", "result": 60, "unit": "nM"},
      {"measurement": "higher binding affinity in KiNativ assay compared to radioisotope filtration binding assay", "setting": "[10]; SRC", "result": "~10", "unit": "fold"},
      {"measurement": "IC50", "setting": "[10]; SRC in YUSIV lysate, 3-point dose response", "result": 31, "unit": "nM"}
    ]}
  ]
}
